The values that follow come from patent US20120034242A1, “CYTOKINE-EXPRESSING CELLULAR VACCINE COMBINATIONS” (BIOSANTE PHARMACEUTICALS, INC., priority 2003, published 2012).

The structures appear in SMILES notation.

Format in all cases: in vivo, mice
In one assay the test system is B16F10. As to the kind of experiment: B16F10 model: B16-GM vaccine plus Celebrex. The conditions noted are these: single agent; preliminary results. As for the experimental part: FIGS. 9A and 9B illustrate the results of a study in the B16F10 melanoma model wherein the effect of a cytokine-expressing cellular vaccine was evaluated in combination with Celebrex (Celecoxib: 50 mg/kg/day in the feed starting on Day −7). Mice were challenged on Day 0 with 1×10^5 live B16F10 cells at a dorsal location and were vaccinated on Day 3 with 1×10^6 irradiated dB16gmtd cells at a ventral location.

The subject of assay [1] is ovalbumin-specific TCR transgenic T cells (OT-1). The experiment in a line: B16 ovalbumin model: tracking of ovalbumin-specific TCR transgenic T cells (OT-1). The conditions noted are these: data not shown. The source says:
B16.ova and B16.GM.ova tumors are B16 cells or B16 cells expressing GM-CSF that were modified to express membrane bound ovalbumin. Ovalbumin acts as a surrogate tumor associated antigen on the tumor cells used for challenge as well as on the vaccine cells. Ovalbumin-specific T cells are used to track “tumor specific” T cell responses in the presence or absence of cells expressing GM-CSF (B16.GM-ova) alone or in combination with another cancer therapeutic agent. An antibody specifically recognizing the T-cell receptor of the ovalbumin specific T-cells is used to follow these “tumor-specific” T-cells. This antibody can be used to monitor the expansion of these tumor-specific T-cells and their activation status following various vaccination regiments. In one exemplary experimental approach, mice received via adoptive transfer ovalbumin-specific T-cells on day −2, are challenged with B16F10.ova on day 0, are vaccinated with B16F10.GM-ova on day 3 and then treated with at least one additional cancer therapeutic agent such as taxotere on day 5 and 9 (6 mg/kg), followed by monitoring of OVA-specific T cells at various time points after vaccination.

A further assay concerns B16 tumor. The experiment in a line: B16 melanoma model: B16-GM vaccine plus docetaxel. The protocol:
FIG. 8A illustrates the results of a study in the B16F10 melanoma model wherein the effect of 3 IV injections of docetaxel (total dose 18 mg/kg) administered on days 5, 9, and 13 was evaluated with respect to the percentage of mice that survived.
FIG. 8B illustrates the study carried out to generate the data shown in FIGS. 8C and D. The study was performed in the B16F10 melanoma model and compared the efficacy of one cycle of a GM-CSF secreting tumor cell vaccine administration combined with one cycle of Taxotere administration to three cycles of vaccine plus three cycles of taxotere.
FIGS. 8C and 8D illustrate the results of a study in the B16F10 melanoma model (carried out as described in FIG. 8B) wherein the effect of a cytokine-expressing cellular vaccine was evaluated in combination with docetaxel (total dose 18 mg/kg) administered on days 5, 9, and 13. Administration of docetaxel given between bi-weekly vaccinations (three vaccinations total; three cycles) increased the median survival of B16 tumor-bearing mice from 31 days to 52 days when compared to three B16-GM vaccinations alone. […]
The combination of docetaxel and a GM-CSF-secreting B16F10 tumor cell (B16-GM) vaccine was evaluated in the B16 melanoma model. […]

Consider `Cc1ccc(-c2cc(C(F)(F)F)nn2-c2ccc(S(N)(=O)=O)cc2)cc1` [Celebrex, Celecoxib], for which the “effect on B16F10 tumor size and overall survival” value in the assay on B16F10 is listed as “no effect”.
Take `CC(=O)O[C@@]12CO[C@@H]1C[C@H](O)[C@@]1(C)C(=O)[C@H](O)C3=C(C)[C@@H](OC(=O)[C@H](O)[C@@H](NC(=O)OC(C)(C)C)c4ccccc4)C[C@@](O)([C@@H](OC(=O)c4ccccc4)[C@H]21)C3(C)C` [docetaxel]: the “survival of ovalbumin-specific TCR transgenic T cells (OT-1)” value in assay [1] is reported as “prolongs”. Further, the “inhibiting B16 tumor growth” value in the assay on B16 tumor (monotherapy, three IV injections, total dose 18 mg/kg) is recorded as “ineffective”. In addition, the “Median Survival” value in the assay on B16 tumor (one cycle: vaccine three days after challenge, docetaxel IV days 5, 9, 13 (total 18 mg/kg)) is 24 days.
